We go through 84 sequences from the OligoGym collection.

Where “and” joins values, the source holds several entries; their conditions need not be identical. Equal values may be shown once. These antisense oligonucleotides have a phosphorothioate backbone; sugars and methylation of C are not fully specified.
Also: test concentration or dose not given here.

For one series, the target named is MAP2K1. As to conditions: ASO.
As to TCTCGCTTCCTCCCTCGT, the remaining target (mRNA or protein) (fraction of control) turned out to be 0.74.

In turn, TGAAGCCCCAGCTATCAT came in with a remaining target (mRNA or protein) (fraction of control) of 0.41.

TTCCAGCTTTCTTCAGGA yielded a remaining target (mRNA or protein) (fraction of control) of 0.58.

On to ACTAAGTATCCCACACAG, for which the remaining target (mRNA or protein) (fraction of control) turned out to be 0.16.

With GCTTGTGGGAGACCTTGA, the remaining target (mRNA or protein) (fraction of control) stood at 0.65.

AAGAGTAGAATCTTGGCA displayed a remaining target (mRNA or protein) (fraction of control) of 0.9.

For GTAATCCAACAACTCAAA, the remaining target (mRNA or protein) (fraction of control) was determined as 0.79.

CTACCCACATTCACCAAA registered a remaining target (mRNA or protein) (fraction of control) of 0.72.

Consider TAACGCGCTTCCAACTCC, for which the remaining target (mRNA or protein) (fraction of control) was found to be 0.3.

Sequence AACCAGAAGTCTACAGAT registered a remaining target (mRNA or protein) (fraction of control) of 0.69.

AAGGATTTTCATACAATT: the remaining target (mRNA or protein) (fraction of control) is 0.7.

For AGTCGATGAGCTGCCCGC, the remaining target (mRNA or protein) (fraction of control) was found to be 0.24.

Sequence TCTGCTTCTGGGTAAGAA showed a remaining target (mRNA or protein) (fraction of control) of at least 1.

TGGAGTCTTTCTGGCGAC came in with a remaining target (mRNA or protein) (fraction of control) of 0.44.

In turn, CTGACTGCACAGAGTAAT yielded a remaining target (mRNA or protein) (fraction of control) of 0.2.

AGGCCGATGGTGGAGCAG displayed a remaining target (mRNA or protein) (fraction of control) of 0.14.

On to CTAGGATGTTGGAGGGCT, for which the remaining target (mRNA or protein) (fraction of control) stood at 0.27.

With CATGAACCATGAGTTGCT, the remaining target (mRNA or protein) (fraction of control) amounted to 0.24.

For CTCTTTGTTGCTTCCCAA, the remaining target (mRNA or protein) (fraction of control) is 0.38.

As for GTACGGAGAGTTGCACTC, the remaining target (mRNA or protein) (fraction of control) was determined as 0.25.

Turning to CACCCAAACATCAGCTCC, the remaining target (mRNA or protein) (fraction of control) is 0.41.

With GAAGGATCTCACAAGGCT, the remaining target (mRNA or protein) (fraction of control) came out at 0.27.

As for GAGTTCTACATGAAAAGC, the remaining target (mRNA or protein) (fraction of control) came out at 0.66.

The sequence GGCGTCGGCTTCTTCTTG yielded a remaining target (mRNA or protein) (fraction of control) of 0.3.

CTCTGTGCATGATCTTGT registered a remaining target (mRNA or protein) (fraction of control) of 0.51.

TACAACAGCATTGGTACT registered a remaining target (mRNA or protein) (fraction of control) of 0.23.

GGCCTTTTATTACAGCAA returned a remaining target (mRNA or protein) (fraction of control) of 0.5.

TCTCAGCCGCATCTCCTT showed a remaining target (mRNA or protein) (fraction of control) of 0.13.

Sequence TACCAGAGACAGTCCCAT displayed a remaining target (mRNA or protein) (fraction of control) of 0.24.

Take GCAGTTTTGGAGGAGGCT: the remaining target (mRNA or protein) (fraction of control) amounted to 0.32.

For the sequence CCCAGCTCACTGATCTTC, the remaining target (mRNA or protein) (fraction of control) was 0.89.

TGCAGATACTGATCTCGC had a remaining target (mRNA or protein) (fraction of control) of 0.29.

In turn, AGCAGCATGGGTTGGTGT yielded a remaining target (mRNA or protein) (fraction of control) of 0.41.

In the case of GTTGGTCTCCGCAGAGCT, the remaining target (mRNA or protein) (fraction of control) came to 0.37.

Take AGGAGGCCCAAAAGCGAC: the remaining target (mRNA or protein) (fraction of control) was 0.65.

ATTAAGCATTTATTCACA returned a remaining target (mRNA or protein) (fraction of control) of at least 1.

For CATCTGGAGGAGGGATGG, the remaining target (mRNA or protein) (fraction of control) was found to be 0.71.

On to CAAAATCCACTTCCTCAG, for which the remaining target (mRNA or protein) (fraction of control) amounted to 0.28.

The sequence AGTCACAGAGCTTGATCT displayed a remaining target (mRNA or protein) (fraction of control) of 0.31.

Another series concerns the target PIK3CB. As to conditions: ASO.
For the sequence TGCCAATTCATTTACTTTGA, the remaining target (mRNA or protein) (fraction of control) was at least 1.

TGTAATATTATGTCTCCAGT returned a remaining target (mRNA or protein) (fraction of control) of 0.9.

AGTAGCCAGCACAGGACAGT: the remaining target (mRNA or protein) (fraction of control) was at least 1.

GGGCAAAAGGAAATCCACAG had a remaining target (mRNA or protein) (fraction of control) of at least 1.

With GATGTCTGCCATAGCAGGAG, the remaining target (mRNA or protein) (fraction of control) is at least 1.

As to AATTGTGAACTTGCTTCCAT, the remaining target (mRNA or protein) (fraction of control) amounted to 0.74.

The sequence AAGTTTTCAGGGATGGATGG came in with a remaining target (mRNA or protein) (fraction of control) of at least 1.

On to GTCAATATCCATAAGGAGGT, for which the remaining target (mRNA or protein) (fraction of control) was at least 1.

In turn, TAAACACGTCCTGGCAGTTT gave a remaining target (mRNA or protein) (fraction of control) of at least 1.

Sequence ATGAACAGCTACGATGAGCT showed a remaining target (mRNA or protein) (fraction of control) of 0.73.

As for TATAAGAAATGGTAGCTTCC, the remaining target (mRNA or protein) (fraction of control) is at least 1.

For ACTATGTCTGTCACCAATCC, the remaining target (mRNA or protein) (fraction of control) is 0.52.

GGCATTATGAAACTGAAGCA returned a remaining target (mRNA or protein) (fraction of control) of at least 1.

Consider GAGGTTGAACATTGGGTAAT, for which the remaining target (mRNA or protein) (fraction of control) was 0.79.

TGCAACACATAATCATAGGG returned a remaining target (mRNA or protein) (fraction of control) of at least 1.

Sequence TAAGGCAACATCCGAAGATC registered a remaining target (mRNA or protein) (fraction of control) of 0.96.

GAGGATAACACATGGGTTCA registered a remaining target (mRNA or protein) (fraction of control) of at least 1.

For the sequence TTCCCGAGGTACCTCCAACT, the remaining target (mRNA or protein) (fraction of control) came to 0.7.

On to ATTCCCATGCCGTCGTAAAA, for which the remaining target (mRNA or protein) (fraction of control) was at least 1.

In turn, CATATTAGGAGACACTTGAA yielded a remaining target (mRNA or protein) (fraction of control) of at least 1.

TTCACTTTAGTAGTCCAGCT had a remaining target (mRNA or protein) (fraction of control) of 0.89.

For ATTGAGTGCTTCAACCTGCT, the remaining target (mRNA or protein) (fraction of control) was at least 1.

The sequence TGCTATCTGTGAATCCACCG showed a remaining target (mRNA or protein) (fraction of control) of 0.99.

For the sequence AACATTTGGAGTGTCAACAT, the remaining target (mRNA or protein) (fraction of control) is at least 1.

A further series deals with PIK3CD. As to conditions: ASO.
For the sequence GGAAGCTGAAGTCTAGCAGC, the remaining target (mRNA or protein) (fraction of control) is 0.84 and 0.56.

Take GTCGGTTCTTTCCCGTTAGG: the remaining target (mRNA or protein) (fraction of control) was 0.52 and 0.35.

For GGAGGAGCCACTACTGCCTG, the remaining target (mRNA or protein) (fraction of control) was 0.98 and 0.55.

As to ACTGCCTGTTGTCTTTGGAC, the remaining target (mRNA or protein) (fraction of control) was 0.74 and 0.44.

Consider AATGAGTGTCATCCCGCCCT, for which the remaining target (mRNA or protein) (fraction of control) is 0.4 and 0.14.

For AGTCCACCCCAGGGGGCATC, the remaining target (mRNA or protein) (fraction of control) is ≥ 1 and 0.45.

On to GCGGCACGTCCTTGGTGGAC, for which the remaining target (mRNA or protein) (fraction of control) was 0.93 and 0.54.

As to CCCCGGTCTTAAGCTGGTCC, the remaining target (mRNA or protein) (fraction of control) was 0.31 and 0.42.

For the sequence GGCAGATTAAAGATGCTTTA, the remaining target (mRNA or protein) (fraction of control) is 0.9 and 0.48.

AGCTGCCAGAACTCAGTCTA: the remaining target (mRNA or protein) (fraction of control) was 0.53 and 0.48.

As to TGGAATAGTCCAAGAAAGAC, the remaining target (mRNA or protein) (fraction of control) was at least 1.

As for CAGGGGGCATCCTGCGTTGT, the remaining target (mRNA or protein) (fraction of control) was 0.85 and ≥ 1.

For the sequence CCACCCCAGGGGGCATCCTG, the remaining target (mRNA or protein) (fraction of control) was ≥ 1 and 0.37.

For the sequence ATGAAGGAGGCGTTTCCGTT, the remaining target (mRNA or protein) (fraction of control) was 0.81 and 0.32.

GGGCTGGGAGGAGCCACTAC gave a remaining target (mRNA or protein) (fraction of control) of at least 1.

As for AATTCCCCAGAAAGTGGCCA, the remaining target (mRNA or protein) (fraction of control) was 0.74 and 0.5.

GCGCAGCTGGCAGGGCTGGG: the remaining target (mRNA or protein) (fraction of control) was 0.86 and ≥ 1.

Take CCCCAGGGGGCATCCTGCGT: the remaining target (mRNA or protein) (fraction of control) is 0.81 and 0.96.

On to CGGCCGCTCGTGCCGAATTC, for which the remaining target (mRNA or protein) (fraction of control) is 0.96 and ≥ 1.

Take CAGCCGAGAGCCAGGTGCAG: the remaining target (mRNA or protein) (fraction of control) was ≥ 1 and 0.59.

For the sequence CGTTGCTCGTCCTCCAGCTC, the remaining target (mRNA or protein) (fraction of control) was 0.47 and 0.27.
